Where no end group is shown, it is not given here. [ ]: non-standard residue; d: D form.
Experiments:
[1] = target: T1, cytochrome c and cardiolipin (CL) (Equus caballus, UniProt P00004); experiment: Fluorescence quenching by cytochrome c in the presence of cardiolipin; type: binding, horse; details: CL 50 μg/ml
T1 construct: from tissue; host or cells: horse heart
Protocol: Fluorescence emission of SS-19 (10 μM) was monitored in real time (Ex/Em=320 nm/420 nm) using Hitachi F-4500 fluorescence spectrophotometer. […] CL may potentiate the interaction between SS-19 and cytochrome c by serving as an anionic platform for the two cationic molecules.
The quenching by cytochrome c was not displaced by sequential additions of bovine serum albumin (500 μg/ml) (FIG. 13C, A+arrows).
SS-36 also contains the polarity-sensitive fluorescent amino acid aladan. […] Accordingly, aromatic-cationic peptides of the present disclosure are useful for the prevention or treatment of diseases or disorders characterized by dysregulation of cardiolipin and/or cytochrome c, and/or diseases or disorders characterized by dysregulation of the cardiolipin/cytochrome c interaction.
Interaction of SS peptides with horse heart cytochrome c in the absence or presence of free cardiolipin or cardiolipin/POPC (1:1) liposomes (prepared as described in Example 22) was examined by fluorescence quenching of [atn]SS-02 (λex/λem=320/420 nm) and [ald]SS-02 (λex/λem=360/510 nm) upon addition of cytochrome c (using a Hitachi F-4500 fluorescence spectrophotometer). The solvents used to dissolve cardiolipin and POPC had negligible effect on cytochrome c-dependent quenching of these peptides. All experiments were done in low ionic solution (deionized water) or 20 mM Hepes pH 7.4.

[2] = Fluorescence spectroscopy of labelled peptides with cardiolipin; type: binding; details: 1 μM peptide; CL 5 to 50 μg/ml
Source text: The peptides 2′,6′-Dmt-D-Arg-[…] (SS-19) and 2′,6′-Dmt-D-Arg-Phe-Lys-Ald-NH2 (SS-37) cationic peptides carry net positive charge at neutral pH. They are expected to associate with anionic phospholipid cardiolipin based on electrostatic interaction. The interaction of small peptides with lipid membranes can been studied using fluorescence spectroscopy (Surewicz and Epand, 1984). […] Polarity-sensitive fluorescent probes were incorporated into the peptides and fluorescence spectroscopy was used to determine if SS-19, SS-37 and SS-36 interact with CL.
The peptide 2′,6′-Dmt-D-Arg-Phe-(atn)Dap-NH2 (SS-19) contains anthraniloyl incorporated into diaminopropionic acid. Anthraniloyl derivatives fluoresce in the 410-420 nm range when excited at 320-330 nm (Hiratsuka T, 1983). The quantum yield of anthraniloyl derivatives is strongly dependent on the local environment, and can increase 5-fold going from water to 80% ethanol, together with a blue shift in the emission maxima (λ max) of <10 nm (Hiratsuka T, 1983). Fluorescence emission spectrum of SS-19 (1 μM) alone, and in the presence of increasing concentrations of CL (5 to 50 μg/ml), was monitored following excitation at 320 nm using Hitachi F-4500 fluorescence spectrophotometer.
The peptide 2′,6′-Dmt-D-Arg-Phe-Lys-Ald-NH2 (SS-37) contains an additional amino acid, aladan (Ald), which has been reported to be particularly sensitive to the polarity of its environment and it has been used to probe the electrostatic character of proteins (Cohen et al., 2002). When excited at 350 nm, λmax shifts from 542 nm in water to 409 nm in heptane, accompanied by a significant increase in quantal yield (Cohen et al., 2001). Fluorescence emission spectrum of SS-37 (1 μM) alone, and in the presence of increasing concentrations of CL, was monitored following excitation at 350 nm. Addition of CL (5 to 50 μg/ml) led to a 3-fold increase in quantal yield of SS-37 as well as a clear blue shift in λ max, from 525 nm without CL to 500 nm with 50 μg/ml CL (FIG. 11B).
The peptide 2′,6′-Dmt-D-Arg-Ald-Lys-NH2 (SS-36) contains Ald in place Phe^3 in SS-02. Fluorescence emission spectrum of SS-36 (1 μM) alone, and in the presence of increasing concentrations of CL, was monitored following excitation at 350 nm. SS-36 was the most sensitive to the addition of CL, with dramatic increase in quantal yield and blue shift observed with much lower added amounts of CL (1.25 to 5 μg/ml). The λmax shifted from 525 nm without CL to 500 nm with as little as 1.25 μg/ml CL, and quantal yield increased by more than 100-fold with the addition of 5 μg/ml of CL (FIG. 11C). […] Accordingly, aromatic-cationic peptides of the present disclosure are useful for the prevention or treatment of diseases or disorders characterized by dysregulation of cardiolipin.
Changes in the emission intensity of the [atn]SS-02 and the [ald]SS-02 were measured using a Hitachi F-4500 fluorescence spectrophotometer. The different solvents used to dissolve the various phospholipids (chloroform, methanol and ethanol) had negligible effect on the fluorescence spectrum of [atn]SS-02 and [ald]SS-02. All experiments were done in low ionic solution (deionized water) to optimize electrostatic interactions of peptides with phospholipids.
Increasing concentrations of cardiolipin (5, 10, 25, and 50 μg/mL) were added to 1 μM [atn]SS-02, and the emission intensity between 350 nm and 500 nm was measured.

[3] = target: cardiolipin-cytochrome c complex (Equus caballus, UniProt P00004); experiment: Cytochrome c reduction in the presence of cardiolipin; type: biochemical; details: 500 μM GSH
Chain of cardiolipin-cytochrome c complex (P00004 2-105 limits assumed, one chain of several): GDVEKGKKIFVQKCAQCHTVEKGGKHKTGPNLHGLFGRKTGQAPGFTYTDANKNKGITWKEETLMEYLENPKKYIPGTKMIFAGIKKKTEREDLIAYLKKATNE
Protocol: Reduction of cytochrome c (20 μM) was induced by the addition of glutathione (500 μM) in the absence or presence of CL (100 μg/ml) (FIG. 15A). Reduction of cytochrome c was monitored by absorbance at 550 nm using a 96-well UV-VIS plate reader (Molecular Devices). Addition of CL decreased the rate of cytochrome c reduction by half.
The time course of cytochrome c reduction by ascorbate was recorded at 550 nm and 570 nm using a 96-well plate reader (Molecular Devices, Sunnyvale, Calif.). For all reactions, cytochrome c was preincubated with cardiolipin in the presence or absence of SS peptides for 1 min. […] Ascorbate (50 μM) was added to initiate the reduction of cytochrome c, and the absorbance was recorded for 5 min. The rate of reduction was calculated based on slope of the change in absorbance intensity of 550 nm over 570 nm.

[4] = target: cytochrome c/cardiolipin complex (Equus caballus, UniProt P00004); experiment: Soret circular dichroism of cytochrome c with cardiolipin; type: biochemical; details: 10 μM cytochrome c, 30 μg/ml CL, 10 μM peptide; 20 mM HEPES pH 7.5, 25° C.
Chain of cytochrome c/cardiolipin complex (P00004 2-105 limits assumed, one chain of several): as above
Protocol: Circular dichroism (CD) was carried out to examine the effects of the peptides on protecting the heme environment of cytochrome c from the acyl chain of CL. For heme proteins, the Soret CD spectrum is strictly correlated with the heme pocket conformation. In particular, the negative 416-420 nm Cotton effect is considered diagnostic of Fe(III)-Met80 coordination in native cytochrome c (Santucci and Ascoli, 1997). […] CD spectra were obtained using AVIV CD Spectrometer Model 410.
Changes in the Soret CD spectrum of cytochrome c (10 μM) were recorded in the absence (dotted line) and presence (dashed line) of 30 μg/ml CL, plus addition of different peptides (10 μM) (solid line) (FIG. 14). CD measurements were carried out using 20 mM HEPES, pH 7.5, at 25° C. and expressed as molar ellipticity (A) (m Deg). […] Accordingly, aromatic-cationic peptides of the present disclosure are useful for the prevention or treatment of diseases or disorders characterized by dysregulation of cardiolipin and/or cytochrome c, and/or diseases or disorders characterized by dysregulation of the cardiolipin/cytochrome c interaction. In addition, aromatic-cationic peptides of the present disclosure are useful to protect the heme environment of cytochrome c from the acyl chain of cardiolipin.
Circular Dichroism (CD) spectra were collected with an AVIA 62 DS spectrophotometer equipped with a sample temperature controller. CD spectra of the Soret region (370-450 nm) were recorded with 10-mm path length cells containing 20 mM Hepes, pH 7.4, and 10 μM cytochrome c, in the presence or absence of 30 μg/ml cardiolipin and different SS peptide analogs (SS-02, [atn]SS-02, [ald]SS-02, and SS-31). The maximum lipid concentration was kept low to avoid spectral distortions due to excessive light scattering. All measurements were done at 25° C. All spectra were corrected for background, and the final spectrum shown represents the average of at least three experiments.

[5] = tested on: isolated mitochondria; experiment: ATP synthesis in isolated mitochondria; type: biochemical, rat; details: mitochondria energized with low concentrations of succinate
Protocol: (§1) Fresh mitochondria were isolated from rat kidney as described previously. Electron flux was measured by O2 consumption (Oxygraph Clark electrode) as previously described using different substrates for C1 (glutamate/malate), C2 (succinate), and C3 (TMPD/ascorbate). Assays were carried out under low substrate conditions in order to avoid saturating the enzyme reactions. ATP production in isolated mitochondria was determined kinetically using the luciferase method (Biotherma) in a 96-well luminescence plate reader (Molecular Devices). The initial maximal rate for ATP synthesis was determined over the first minute.
The rate of mitochondrial ATP synthesis was determined by measuring ATP in respiration buffer collected from isolated mitochondria 1 min after addition of […] (FIG. 6). ATP was assayed by HPLC. All experiments were carried out in triplicate, with n=3. […] Accordingly, aromatic-cationic peptides of the present disclosure are useful for increasing ATP synthesis in mitochondria and for treating diseases or disorder characterized by dysregulation of ATP synthesis.
(§2) SS-20 or SS-31 was added at 100 μM concentrations to isolated mitochondria in respiration buffer containing 0.5 mM succinate (complex II substrate) and 400 μM ADP. Similar increases in O2 consumption were observed when low concentrations of complex I substrates (glutamate/malate) were used (data not shown). […] Accordingly, targeting SS-20 and SS-31 to the IMM can facilitate electron flux in the electron transport chain and improve ATP synthesis, especially under conditions of reduced substrate supply.
Increase in electron flux in the electron transport chain can either result in increase in ATP synthesis or increase in electron leak and generation of free radicals. ATP synthesis in isolated mitochondria was assayed by HPLC. […] Accordingly, aromatic-cationic peptides of the present disclosure are useful for increasing ATP synthesis in mitochondria and for treating diseases or disorder characterized by dysregulation of ATP synthesis.

[6] = target: cytochrome c (Equus caballus, UniProt P00004); experiment: Cytochrome c reduction kinetics (absorption spectroscopy); type: biochemical; details: glutathione (GSH) as reducing agent; absorbance at 550 nm
Chain of cytochrome c (P00004 2-105 limits assumed): as the sequence (P00004 2-105 limits assumed, one chain of several) above
Protocol: Increasing amounts of aromatic-cationic peptides were added to a solution of oxidized cytochrome c. The formation of reduced cytochrome c was monitored by absorbance at […]. The rate of cytochrome c reduction was determined by non-linear analysis (Prizm software).
Time-resolved UV-Visible absorption spectroscopy was used to study the electron transport process of cytochrome c in the presence of peptides. Reduced cytochrome c was monitored by absorbance at a broad-band spectral range (200-1100 nm). The absorption changes were recorded with a UV/Visible spectrophotometer (Ultrospec 3300 pro, GE) in quartz cells with path lengths of 1 or 2 mm. N-acetylcysteine (NAC) and glutathione were used as electron donors to reduce oxidized cytochrome c. The rate constant of cytochrome c reduction was estimated by adding various concentrations of peptides. The dose dependence of the peptides was correlated to the cytochrome c reduction kinetics.
Absorption spectroscopy (UltroSpec 3300 Pro; 220-1100 nm) was used to determine if SS-31 modulates cytochrome c reduction (FIG. 1). Reduction of cytochrome c with glutathione is associated with multiple shifts in the Q band (450-650 nm), with a prominent shift at 550 nm. […] Accordingly, the aromatic-cationic peptides of the present disclosure are useful for altering the structure and oxidation state of cytochrome c, and are useful for the prevention or treatment of diseases or disorders characterized by dysregulation of cytochrome c.
Reduction of cytochrome c was monitored by increase in absorbance at 550 nm. […] Similar results were obtained using N-acetylcysteine (NAC) as a reducing agent (not shown). […] Accordingly, aromatic-cationic peptides of the present disclosure are useful for the prevention or treatment of diseases or disorders characterized by dysregulation of cytochrome c and are useful for facilitating cytochrome c reduction.

[7] = tested on: isolated rat kidney mitochondria; experiment: O2 consumption in isolated mitochondria; type: biochemical; details: 400 μM ADP
Protocol: as §1
Oxygen consumption of isolated rat kidney mitochondria was determined using the Oxygraph (FIG. 5). Rates of respiration were measured in the presence of different concentrations of SS-31 in state 2 (400 μM ADP only), state 3 (400 μM ADP and 500 μM substrates) and state 4 (substrates only). All experiments were done in triplicate with n=4−7. […] Accordingly, aromatic-cationic peptides of the present disclosure are useful for promoting electron transfer to oxygen without uncoupling mitochondria, increasing O2 consumption, and treating diseases or conditions related to dysregulation of O2 consumption in mitochondria.
as §2
SS-20 or SS-31 was added at 10 μM or 100 μM concentrations to isolated mitochondria in respiration buffer containing glutamate/malate (complex I substrate), 0.5 mM succinate (complex II substrate) or 3 μM TMPD/1 mM ascorbate (direct reductant of cytochrome c). 400 μM ADP was added to initiate State 3 respiration.

T1 sequence (P00004 2-105 limits assumed): as the sequence (P00004 2-105 limits assumed, one chain of several) above

Substance | quenching of fluorescence by cytochrome c in the presence of CL ([1]; 10 μM peptide, 2 μM cytochrome c) | displacement of quenching by bovine serum albumin in the presence of CL ([1]; BSA 500 μg/ml) | increase in quantal yield on addition of CL [2] | CL inhibition of cytochrome c reduction [3] | protection against CL-induced disappearance of negative Cotton effect [4] | rate of ATP production [5] | rate (kinetics) of cytochrome c reduction [6] | O2 consumption in state 3 respiration ([7]; 10 μM or 100 μM peptide, complex I or complex II substrates or TMPD/ascorbate) | electron flux measured by O2 consumption ([7]; 100 μM peptide, 0.5 mM succinate)
2′,6′-Dmt-D-Arg-Phe-Lys-Ald-NH2 [SS-37] | similarly quenched | not displaced | 3 fold |  |  |  |  |  | 
D-Arg-Tyr-Lys-Phe-NH2 ([dR]YKF-NH2; N-terminus assumed; SMILES N=C(N)NCCC[C@@H](N)C(=O)N[C@@H](Cc1ccc(O)cc1)C(=O)N[C@@H](CCCCN)C(=O)N[C@@H](Cc1ccccc1)C(N)=O) [SPI-231] |  |  |  | prevented CL inhibition of cytochrome c reduction | Protect the Heme Environment of Cytochrome c from the Acyl Chain of CL |  |  |  | 
F[dR]FK-NH2 [SS-20] |  |  |  | prevented CL inhibition of cytochrome c reduction | Protect the Heme Environment of Cytochrome c from the Acyl Chain of CL | significant increase in the rate of ATP production | accelerate the kinetics of cytochrome c reduction | increases O2 consumption in state 3 respiration | promote electron flux

Reference: patent US10808008B2, “Aromatic-cationic peptides and uses of same” (Cornell University, priority 2012, dated 2020)
